Results on 5 compounds are retold here after ChEMBL document CHEMBL5465560, “Selectivity Literature for EUbOPEN Chemogenomic Library” (2024).

In test [1] the test system is Tyrosine-protein kinase ABL1 (Homo sapiens), P00519 [F317I]. Briefly: Selectivity interaction (Ambit KINOMEscan and KiNATiv profiling in Jurkat cells) EUB0000090b ABL1. The test is classed as cell-based. The settings on record: at 1 µM.
For test [2], the target named is Ribosomal protein S6 kinase alpha-1 (Homo sapiens, UniProt Q15418). Briefly: Selectivity interaction (KinomeScan (DiscoverX)) EUB0000092b RPS6KA1. Conditions: at 10 µM.
Test [3] addresses Dual specificity testis-specific protein kinase 2 (Homo sapiens) (UniProt Q96S53). Briefly: Selectivity interaction (LanthaScreen Eu Kinase Binding Assay) EUB0001632a TESK2. The settings on record: at 10 µM. For orientation: TR-FRET usually uses a lanthanide donor and a delayed reading to cut background.
Test [4] addresses Serine/threonine-protein kinase MRCK beta (Homo sapiens) (UniProt Q9Y5S2). Put plainly: Selectivity interaction (Kinase panel (Z-LYTE Assay)) EUB0001632a CDC42BPB. Conditions: at 10 µM.
Test [5] concerns the target T1, Serine/threonine-protein kinase 4 (Homo sapiens) (UniProt Q13043).
T1 sequence (whole entry): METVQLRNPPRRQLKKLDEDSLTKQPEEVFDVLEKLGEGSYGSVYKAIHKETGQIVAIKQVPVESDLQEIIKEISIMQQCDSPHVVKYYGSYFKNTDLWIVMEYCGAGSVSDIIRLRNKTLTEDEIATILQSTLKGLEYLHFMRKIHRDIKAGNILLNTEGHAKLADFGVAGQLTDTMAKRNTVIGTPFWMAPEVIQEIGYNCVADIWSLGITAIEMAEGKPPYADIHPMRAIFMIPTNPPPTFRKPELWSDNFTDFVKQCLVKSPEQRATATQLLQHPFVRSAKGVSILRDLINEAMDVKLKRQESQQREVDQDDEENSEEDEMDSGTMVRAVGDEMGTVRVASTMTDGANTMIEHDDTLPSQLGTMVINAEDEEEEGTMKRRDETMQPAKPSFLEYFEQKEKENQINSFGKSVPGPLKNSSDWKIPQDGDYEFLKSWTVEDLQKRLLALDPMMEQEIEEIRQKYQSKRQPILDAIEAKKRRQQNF
Put plainly: Selectivity interaction (Kinase panel (Z-LYTE Assay)) EUB0001632a STK4. The settings on record: at 10 µM.

For test [6], the target named is T2, Serine/threonine-protein kinase 3 (Homo sapiens) (UniProt Q13188).
T2 sequence (whole entry): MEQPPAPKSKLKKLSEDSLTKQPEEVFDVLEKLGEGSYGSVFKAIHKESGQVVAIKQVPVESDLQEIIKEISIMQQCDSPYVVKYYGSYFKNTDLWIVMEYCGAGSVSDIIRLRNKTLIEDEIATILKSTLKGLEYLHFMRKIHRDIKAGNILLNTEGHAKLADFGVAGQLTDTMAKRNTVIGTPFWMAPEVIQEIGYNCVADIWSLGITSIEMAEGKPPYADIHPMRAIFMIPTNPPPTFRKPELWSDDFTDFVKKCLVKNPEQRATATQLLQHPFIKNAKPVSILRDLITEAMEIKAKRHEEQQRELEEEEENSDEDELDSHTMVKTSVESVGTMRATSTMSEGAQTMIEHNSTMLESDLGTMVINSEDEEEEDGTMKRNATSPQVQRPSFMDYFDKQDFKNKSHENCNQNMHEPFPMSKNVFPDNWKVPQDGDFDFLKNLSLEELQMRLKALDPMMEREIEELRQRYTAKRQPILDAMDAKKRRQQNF
Briefly: Selectivity interaction (ActivX KiNativ screen (kinase selectivity in THP-1 cell lysates)) EUB0000639a STK3. The settings on record: lysate, at 0.01 µM. The test is classed as subcellular.

Test [7] has as its target T3, Serine/threonine-protein kinase tousled-like 1 (Homo sapiens) (UniProt Q9UKI8).
T3 sequence (whole entry): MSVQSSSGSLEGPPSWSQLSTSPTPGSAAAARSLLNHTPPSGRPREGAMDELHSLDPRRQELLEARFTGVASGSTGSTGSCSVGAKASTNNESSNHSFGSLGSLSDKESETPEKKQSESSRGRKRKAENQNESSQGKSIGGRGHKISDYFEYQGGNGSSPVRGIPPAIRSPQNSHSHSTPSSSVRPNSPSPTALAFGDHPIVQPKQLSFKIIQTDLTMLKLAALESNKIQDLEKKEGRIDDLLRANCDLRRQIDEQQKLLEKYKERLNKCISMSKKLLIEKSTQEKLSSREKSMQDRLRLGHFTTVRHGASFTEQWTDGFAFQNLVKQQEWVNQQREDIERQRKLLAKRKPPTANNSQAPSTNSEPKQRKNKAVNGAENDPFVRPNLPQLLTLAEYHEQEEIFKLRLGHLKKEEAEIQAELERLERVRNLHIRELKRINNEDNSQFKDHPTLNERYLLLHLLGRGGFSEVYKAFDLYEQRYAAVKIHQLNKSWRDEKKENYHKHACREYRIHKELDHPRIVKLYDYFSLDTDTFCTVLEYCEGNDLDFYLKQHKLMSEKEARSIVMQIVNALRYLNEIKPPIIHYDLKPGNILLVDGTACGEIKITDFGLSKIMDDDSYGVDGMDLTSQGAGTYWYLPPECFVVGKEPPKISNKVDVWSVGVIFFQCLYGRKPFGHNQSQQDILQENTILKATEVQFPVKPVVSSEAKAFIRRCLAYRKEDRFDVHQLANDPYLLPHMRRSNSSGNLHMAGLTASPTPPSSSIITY
Briefly: Selectivity interaction (ActivX KiNativ screen (kinase selectivity in THP-1 cell lysates)) EUB0000639a TLK1. Format: subcellular. Conditions: lysate, at 0.01 µM.

Test [8] deals with T4, Serine/threonine-protein kinase DCLK3 (Homo sapiens) (UniProt Q9C098).
T4 sequence (whole entry): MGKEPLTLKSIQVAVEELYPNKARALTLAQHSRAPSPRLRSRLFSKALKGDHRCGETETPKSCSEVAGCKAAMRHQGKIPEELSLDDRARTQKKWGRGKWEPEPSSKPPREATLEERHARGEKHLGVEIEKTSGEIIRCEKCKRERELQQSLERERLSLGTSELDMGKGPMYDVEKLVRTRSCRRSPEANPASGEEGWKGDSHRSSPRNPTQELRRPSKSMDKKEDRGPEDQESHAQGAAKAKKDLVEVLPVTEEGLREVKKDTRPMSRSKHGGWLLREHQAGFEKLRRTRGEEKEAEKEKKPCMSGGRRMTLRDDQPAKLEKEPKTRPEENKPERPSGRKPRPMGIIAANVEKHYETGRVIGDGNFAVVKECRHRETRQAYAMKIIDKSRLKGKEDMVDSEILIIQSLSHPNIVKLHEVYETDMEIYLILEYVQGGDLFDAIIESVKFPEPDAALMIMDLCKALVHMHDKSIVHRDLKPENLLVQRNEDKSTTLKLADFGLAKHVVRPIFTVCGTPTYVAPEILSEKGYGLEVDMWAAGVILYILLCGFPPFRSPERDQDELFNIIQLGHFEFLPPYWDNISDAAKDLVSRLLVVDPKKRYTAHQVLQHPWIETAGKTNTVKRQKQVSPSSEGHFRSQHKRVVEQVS
Put plainly: Selectivity interaction (KinomeScan (DiscoverX)) EUB0000595a DCLK3. The settings on record: at 10 µM.

Chain of Ribosomal protein S6 kinase alpha-1 (Q15418 whole entry): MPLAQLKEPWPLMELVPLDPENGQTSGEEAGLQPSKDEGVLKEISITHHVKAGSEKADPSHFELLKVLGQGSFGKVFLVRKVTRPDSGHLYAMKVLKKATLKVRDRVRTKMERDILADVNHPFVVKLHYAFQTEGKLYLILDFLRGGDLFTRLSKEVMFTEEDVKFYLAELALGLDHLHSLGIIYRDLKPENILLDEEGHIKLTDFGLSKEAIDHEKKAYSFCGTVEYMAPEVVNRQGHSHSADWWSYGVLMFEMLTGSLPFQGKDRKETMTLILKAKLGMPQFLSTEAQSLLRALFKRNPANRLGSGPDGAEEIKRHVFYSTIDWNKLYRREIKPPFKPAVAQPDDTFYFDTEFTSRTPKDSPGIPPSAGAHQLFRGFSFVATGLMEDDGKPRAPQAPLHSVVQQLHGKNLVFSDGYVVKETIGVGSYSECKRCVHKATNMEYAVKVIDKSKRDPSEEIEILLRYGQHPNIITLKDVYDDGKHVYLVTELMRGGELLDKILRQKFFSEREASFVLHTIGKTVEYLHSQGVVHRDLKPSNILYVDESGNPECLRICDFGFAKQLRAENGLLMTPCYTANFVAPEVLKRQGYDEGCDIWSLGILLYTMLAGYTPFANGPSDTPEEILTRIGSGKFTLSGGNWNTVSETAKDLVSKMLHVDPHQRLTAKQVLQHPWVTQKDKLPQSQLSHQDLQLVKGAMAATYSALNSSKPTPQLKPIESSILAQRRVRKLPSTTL
Chain of Tyrosine-protein kinase ABL1 (Homo sapiens), P00519 [F317I] (P00519 whole entry F317I): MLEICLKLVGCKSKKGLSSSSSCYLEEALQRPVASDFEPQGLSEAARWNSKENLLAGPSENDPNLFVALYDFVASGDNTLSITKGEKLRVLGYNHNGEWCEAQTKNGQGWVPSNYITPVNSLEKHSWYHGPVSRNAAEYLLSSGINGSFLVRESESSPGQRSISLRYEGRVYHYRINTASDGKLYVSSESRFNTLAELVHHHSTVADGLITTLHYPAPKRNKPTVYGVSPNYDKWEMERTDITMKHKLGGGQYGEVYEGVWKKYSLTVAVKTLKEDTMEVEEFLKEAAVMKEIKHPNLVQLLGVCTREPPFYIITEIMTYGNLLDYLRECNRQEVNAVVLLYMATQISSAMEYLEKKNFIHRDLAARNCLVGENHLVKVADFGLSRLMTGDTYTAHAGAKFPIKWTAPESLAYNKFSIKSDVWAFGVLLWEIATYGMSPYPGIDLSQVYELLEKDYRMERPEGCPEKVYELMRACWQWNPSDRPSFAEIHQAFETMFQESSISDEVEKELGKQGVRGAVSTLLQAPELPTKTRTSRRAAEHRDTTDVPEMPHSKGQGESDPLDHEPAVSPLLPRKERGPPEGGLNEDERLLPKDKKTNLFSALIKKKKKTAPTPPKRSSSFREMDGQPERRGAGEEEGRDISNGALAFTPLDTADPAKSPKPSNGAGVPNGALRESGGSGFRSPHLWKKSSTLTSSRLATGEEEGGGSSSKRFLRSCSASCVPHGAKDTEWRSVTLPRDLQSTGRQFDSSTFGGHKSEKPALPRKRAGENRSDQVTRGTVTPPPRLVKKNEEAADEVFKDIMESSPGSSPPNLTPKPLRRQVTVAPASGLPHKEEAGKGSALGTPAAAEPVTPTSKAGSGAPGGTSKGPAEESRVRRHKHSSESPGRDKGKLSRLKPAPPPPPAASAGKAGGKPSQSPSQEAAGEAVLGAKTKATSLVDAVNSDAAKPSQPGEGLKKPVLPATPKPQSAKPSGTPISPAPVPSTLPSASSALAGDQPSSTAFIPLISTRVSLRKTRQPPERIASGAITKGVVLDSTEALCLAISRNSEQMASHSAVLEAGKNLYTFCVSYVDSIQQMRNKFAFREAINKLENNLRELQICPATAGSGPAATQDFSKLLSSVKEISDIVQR
Chain of Dual specificity testis-specific protein kinase 2 (Homo sapiens) (Q96S53 whole entry, looked up): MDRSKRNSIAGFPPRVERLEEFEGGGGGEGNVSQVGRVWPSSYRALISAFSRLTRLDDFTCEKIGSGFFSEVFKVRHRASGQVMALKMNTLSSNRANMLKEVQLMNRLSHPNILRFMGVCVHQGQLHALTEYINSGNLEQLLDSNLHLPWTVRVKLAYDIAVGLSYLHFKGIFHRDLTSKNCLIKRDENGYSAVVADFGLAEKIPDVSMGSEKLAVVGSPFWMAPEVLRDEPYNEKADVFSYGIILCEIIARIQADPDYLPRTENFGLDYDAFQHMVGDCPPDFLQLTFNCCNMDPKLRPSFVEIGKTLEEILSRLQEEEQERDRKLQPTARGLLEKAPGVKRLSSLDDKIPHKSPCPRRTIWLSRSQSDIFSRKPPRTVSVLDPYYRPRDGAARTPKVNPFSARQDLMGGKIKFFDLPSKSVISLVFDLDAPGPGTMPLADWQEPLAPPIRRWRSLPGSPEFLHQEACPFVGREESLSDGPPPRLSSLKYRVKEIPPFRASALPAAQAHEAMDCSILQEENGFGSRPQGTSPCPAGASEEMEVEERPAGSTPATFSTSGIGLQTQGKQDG
Chain of Serine/threonine-protein kinase MRCK beta (Homo sapiens) (Q9Y5S2 whole entry): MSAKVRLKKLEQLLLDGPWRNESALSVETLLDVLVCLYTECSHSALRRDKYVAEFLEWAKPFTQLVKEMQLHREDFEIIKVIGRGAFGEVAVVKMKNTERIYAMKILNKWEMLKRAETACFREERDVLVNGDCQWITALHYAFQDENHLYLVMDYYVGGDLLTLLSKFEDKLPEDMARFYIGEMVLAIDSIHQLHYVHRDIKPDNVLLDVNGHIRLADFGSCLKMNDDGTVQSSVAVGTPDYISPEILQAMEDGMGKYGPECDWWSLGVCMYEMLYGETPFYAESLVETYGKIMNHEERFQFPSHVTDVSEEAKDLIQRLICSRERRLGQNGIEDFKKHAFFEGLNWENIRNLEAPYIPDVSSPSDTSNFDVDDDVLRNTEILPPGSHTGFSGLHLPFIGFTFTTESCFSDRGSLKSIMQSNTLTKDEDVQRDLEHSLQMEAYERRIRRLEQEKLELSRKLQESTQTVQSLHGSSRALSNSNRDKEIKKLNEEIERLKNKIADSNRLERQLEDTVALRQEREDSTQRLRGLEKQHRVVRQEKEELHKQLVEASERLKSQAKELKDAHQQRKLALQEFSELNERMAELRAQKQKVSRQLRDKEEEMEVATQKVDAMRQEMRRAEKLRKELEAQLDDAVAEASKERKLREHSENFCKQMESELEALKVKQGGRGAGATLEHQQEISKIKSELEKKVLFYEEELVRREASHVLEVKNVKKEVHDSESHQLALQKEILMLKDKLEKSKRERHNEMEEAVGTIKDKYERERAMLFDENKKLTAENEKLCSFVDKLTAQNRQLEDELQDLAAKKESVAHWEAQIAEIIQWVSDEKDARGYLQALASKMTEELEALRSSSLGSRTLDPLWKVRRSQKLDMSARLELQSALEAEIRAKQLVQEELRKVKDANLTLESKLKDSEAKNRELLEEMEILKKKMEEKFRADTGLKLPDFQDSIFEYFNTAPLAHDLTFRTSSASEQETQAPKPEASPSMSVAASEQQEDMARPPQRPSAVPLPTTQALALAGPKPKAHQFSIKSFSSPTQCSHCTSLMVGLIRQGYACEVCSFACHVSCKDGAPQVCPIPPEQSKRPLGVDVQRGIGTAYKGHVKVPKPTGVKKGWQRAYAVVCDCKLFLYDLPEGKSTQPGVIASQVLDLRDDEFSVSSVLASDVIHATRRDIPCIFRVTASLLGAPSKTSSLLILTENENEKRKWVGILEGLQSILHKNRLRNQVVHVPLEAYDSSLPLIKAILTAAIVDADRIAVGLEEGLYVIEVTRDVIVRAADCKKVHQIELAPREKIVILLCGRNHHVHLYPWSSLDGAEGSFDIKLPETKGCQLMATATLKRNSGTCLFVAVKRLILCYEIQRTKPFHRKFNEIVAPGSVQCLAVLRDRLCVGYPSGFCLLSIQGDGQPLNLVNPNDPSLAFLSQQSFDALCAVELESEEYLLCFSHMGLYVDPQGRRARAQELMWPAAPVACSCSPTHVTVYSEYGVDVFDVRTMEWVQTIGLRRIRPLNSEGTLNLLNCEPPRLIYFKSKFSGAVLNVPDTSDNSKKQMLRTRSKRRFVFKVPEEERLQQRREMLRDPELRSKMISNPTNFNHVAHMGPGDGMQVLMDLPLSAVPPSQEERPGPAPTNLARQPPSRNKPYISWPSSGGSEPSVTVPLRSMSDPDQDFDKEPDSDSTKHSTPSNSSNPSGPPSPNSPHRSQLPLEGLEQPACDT

For `CN(C)C/C=C/C(=O)Nc1ccc(C(=O)N2CCCC(Nc3ncc(Cl)c(-c4c[nH]c5ccccc45)n3)C2)cc1` (stereo not drawn), the % of control in test [1] amounted to 100%.
Turning to `CCC(=O)N1CCN(c2ccc(-n3c(=O)ccc4cnc5ccc(-c6cnc7ccccc7c6)cc5c43)cc2C(F)(F)F)CC1`, the % of control in test [2] stood at 68%.
As for `Cn1cc(-n2cnc3c(NCc4nc5cc(Cl)c(Cl)cc5[nH]4)nc(N4CCOCC4)nc32)cn1`, the % of inhibition in test [3] stood at 0.732%. The % of control in test [4] is 3.7%; in test [5] it was -9.12%.
Turning to `CC[C@@H]1[C@H](F)C(=O)N[C@@H]1COc1nccc2cc(C(N)=O)c(OC)cc12` [ZIMLOVISERTIB], the figures for the % of inhibition in test [6] and in test [7] were -19.5% and 1.9%, respectively.
Take `COCC(=O)NC/C=C/c1ccc2ncnc(Nc3ccc(Oc4ccc(C)nc4)c(C)c3)c2c1` [CP-724714]: the % of control in test [8] worked out at 83%.
